How the values were obtained:
Assay in all cases: relative viability (nuclei count vs DMSO), 5 days (fraction); higher = more cells survive
RU-SKI 43 + Navitoclax = compound: CC[C@@H](C)CNCC(=O)N1CCC2=C([C@@H]1COC3=CC=CC(=C3)C)C=CS2 [RU-SKI 43] + CC1(C)CCC(c2ccc(Cl)cc2)=C(CN2CCN(c3ccc(C(=O)NS(=O)(=O)c4ccc(N[C@H](CCN5CCOCC5)CSc5ccccc5)c(S(=O)(=O)C(F)(F)F)c4)cc3)CC2)C1 [Navitoclax] (partner 0.5 µM)
How it was run: (§1)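 Relative viability equals treated-well nuclei counts divided by vehicle-well nuclei counts. Counts came from 4× images of lung cancer cell lines grown in 1536-well plates for 5 days after pin-tool dosing on the day after seeding. Dosing used one drug alone or a fixed anchor-drug dose plus five library-drug doses (not always all listed) in √10 steps, and values are medians of duplicate plates.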

RU-SKI 43 + AZD7762 = compound: CC[C@@H](C)CNCC(=O)N1CCC2=C([C@@H]1COC3=CC=CC(=C3)C)C=CS2 [RU-SKI 43] + NC(=O)Nc1cc(-c2cccc(F)c2)sc1C(=O)N[C@H]1CCCNC1 [AZD7762] (partner 0.2 µM)
How it was run: as §1

Irinotecan + Palbociclib = compound: CCc1c2c(nc3ccc(OC(=O)N4CCC(N5CCCCC5)CC4)cc13)-c1cc3c(c(=O)n1C2)COC(=O)[C@]3(O)CC [Irinotecan] + CC(=O)c1c(C)c2cnc(Nc3ccc(N4CCNCC4)cn3)nc2n(C2CCCC2)c1=O [Palbociclib] (partner 0.5 µM)
How it was run: as §1

MK-8033 + Palbociclib = compound: Cn1cc(-c2cnc3ccc4ccc(CS(=O)(=O)NCc5ccccn5)cc4c(=O)c3c2)cn1 [MK-8033] + CC(=O)c1c(C)c2cnc(Nc3ccc(N4CCNCC4)cn3)nc2n(C2CCCC2)c1=O [Palbociclib] (partner 0.5 µM)
How it was run: as §1

Cell Line	relative viability (RU-SKI 43 + Navitoclax; first compound 0.1 µM)	relative viability (RU-SKI 43 + Navitoclax; first compound 0.3162 µM)	relative viability (RU-SKI 43 + Navitoclax; first compound 1 µM)	relative viability (RU-SKI 43 + Navitoclax; first compound 3.162 µM)	relative viability (RU-SKI 43 + Navitoclax; first compound 10 µM)	relative viability (RU-SKI 43 + AZD7762; first compound 0.1 µM)	relative viability (RU-SKI 43 + AZD7762; first compound 0.3162 µM)	relative viability (RU-SKI 43 + AZD7762; first compound 1 µM)	relative viability (RU-SKI 43 + AZD7762; first compound 3.162 µM)	relative viability (RU-SKI 43 + AZD7762; first compound 10 µM)	relative viability (Irinotecan + Palbociclib; first compound 0.6325 µM)	relative viability (Irinotecan + Palbociclib; first compound 2 µM)	relative viability (Irinotecan + Palbociclib; first compound 6.325 µM)	relative viability (Irinotecan + Palbociclib; first compound 20 µM)	relative viability (MK-8033 + Palbociclib; first compound 0.02 µM)	relative viability (MK-8033 + Palbociclib; first compound 0.06325 µM)	relative viability (MK-8033 + Palbociclib; first compound 0.2 µM)	relative viability (MK-8033 + Palbociclib; first compound 0.6325 µM)	relative viability (MK-8033 + Palbociclib; first compound 2 µM)
HCC-15	0.769	0.81	0.715	0.757	0.735	1.12	1.17	1.15	1.24	1.19	0.41	0.346	0.182	0.141	0.748	0.625	0.722	0.699	0.738
NCI-H1666	0.9	1.08	0.888	0.852	0.848	0.884	0.754	0.956	0.774	0.78	0.59	0.559	0.577	0.438	0.684	0.627	0.523	0.707	0.598
NCI-H460	1.15	1.23	1.34	1.44	1.11	0.533	0.756	0.787	0.519	0.638	0.0549	0.128	0.0851	0.0574	0.162	0.147	0.103	0.177	0.172
NCI-H1792	0.65	0.908	0.968	0.612	0.685	0.623	0.753	0.656	0.712	0.686	0.63	0.555	0.435	0.254	0.637	0.63	0.557	0.606	0.615
NCI-H2087	1.05	0.94	0.943	0.911	0.998	1.33	1.65	1.3	1.36	1.31	0.192	0.219	0.174	0.204	0.193	0.21	0.248	0.26	0.235
EKVX	0.989	0.893	0.96	0.982	0.67	0.605	0.714	0.874	0.707	0.658	–	0.311	0.265	0.227	0.366	0.322	0.362	0.39	0.373
NCI-H1355	0.936	0.996	0.921	0.979	0.997	0.711	0.724	0.801	0.697	0.771	–	0.393	0.215	0.206	0.372	0.379	0.375	0.415	0.381
PC-3 [JPC-3]	0.74	0.748	0.783	0.792	0.779	0.885	0.671	0.828	0.834	0.336	0.566	0.557	0.529	0.338	0.506	–	0.505	0.516	0.554
NCI-H2085	1.17	1.11	1.2	1.08	1.12	1.02	0.856	0.948	1.08	1.02	0.461	0.344	0.382	0.358	0.468	0.479	0.499	0.484	0.474
NCI-H1993	0.932	0.91	0.982	1.05	1.02	0.677	0.775	0.807	0.712	0.688	–	0.513	0.521	1.01	0.563	0.566	0.453	0.649	0.424
LK-2	0.962	0.883	0.93	1.07	0.914	0.342	0.372	0.486	0.49	0.468	0.594	0.72	0.227	0.245	0.623	0.528	0.686	0.885	0.502
LC-2-ad	0.388	0.487	0.63	0.422	0.329	0.899	0.945	0.95	0.896	0.857	0.407	0.371	0.316	0.251	0.493	0.453	0.491	0.499	0.488
LCLC-97TM1	0.197	–	0.336	0.399	0.396	0.373	0.184	0.255	0.303	0.239	0.114	0.0978	0.113	0.108	0.243	0.221	–	0.232	0.216
NCI-H1395	1.15	1.15	1.32	1.14	1.02	0.382	0.394	0.387	0.393	0.394	–	0.572	0.476	0.284	0.499	0.588	0.654	0.612	0.624
NCI-H2126	0.776	0.863	0.875	0.875	0.862	1.05	1.17	1.09	1.05	1.04	0.342	0.242	0.323	0.381	0.336	0.37	0.346	0.353	0.311
EPLC-272H	1.17	1.12	1.03	–	1.13	0.242	0.194	0.195	0.345	0.26	–	0.22	0.304	0.264	0.299	0.356	0.352	0.274	0.349
NCI-H1793	0.458	0.417	0.425	0.511	0.318	0.56	0.719	0.641	0.447	0.29	–	0.222	0.203	0.265	0.263	–	0.274	0.288	0.291
NCI-H2347	0.718	0.836	0.904	0.424	0.7	0.732	0.74	0.812	0.614	0.642	0.397	0.459	0.456	0.465	0.368	0.408	0.428	0.441	0.464
LU99A	0.779	0.793	0.87	0.885	0.835	0.255	0.377	0.264	0.267	0.343	0.173	0.179	0.153	0.172	0.414	0.343	0.398	0.409	0.39
NCI-H1915	0.776	0.83	0.8	0.821	0.78	0.699	0.833	0.702	0.672	0.688	0.224	0.182	0.137	0.121	0.538	0.525	0.496	0.492	0.483
H3255	0.489	0.396	0.598	0.5	0.237	0.843	1.02	1.03	0.839	0.873	0.304	0.301	0.292	0.336	0.307	0.361	0.309	0.307	0.336
BEN	0.0754	0.0554	0.064	0.0685	0.0709	0.801	0.652	0.786	0.642	0.743	0.45	0.448	0.387	0.534	0.445	0.512	0.435	0.484	0.461
NCI-H23	0.615	0.9	0.99	0.998	0.687	0.197	0.229	0.202	0.216	0.154	0.446	0.332	0.249	0.254	0.463	0.576	0.406	–	0.413
NCI-H1944	1.02	1.05	1.12	1.02	0.938	0.591	0.579	0.447	0.589	0.502	0.227	0.173	0.179	0.17	0.306	0.316	0.348	0.324	0.327
NCI-H441	0.677	0.498	0.616	0.611	0.542	0.795	1.55	1.23	1.22	1.17	0.207	0.211	0.218	0.175	0.182	0.189	0.217	0.275	0.238
NCI-H1437	1.08	1.33	1.13	1.09	0.998	1.16	1.28	1.16	1.12	1.08	0.319	0.337	0.301	0.258	0.275	0.317	0.323	0.303	0.3
HARA	1.19	1.14	1.15	1.16	1.13	0.469	0.243	0.301	0.357	0.279	0.26	0.184	0.225	0.232	0.229	0.251	0.311	0.296	0.283
LOU-NH91	0.679	0.746	0.741	0.714	0.683	0.789	0.74	0.85	0.831	0.74	0.509	0.494	0.418	0.263	0.495	0.523	0.512	0.531	0.53

Reference: the supplement of paper PMC10307832
